Calls of active or inactive are those of the source. The rule behind the calls is not given here.
System: CCRIS mutagenicity, Ames/micronucleus/aberration tests
Test: CCRIS mutagenicity studies
[1] = Test System: AMES SALMONELLA TYPHIMURIUM, Strain/Indicator: TA97, Metabolic Activation: NONE, Method: PREINCUBATION
[2] = Test System: AMES SALMONELLA TYPHIMURIUM, Strain/Indicator: TA100, Metabolic Activation: NONE, Method: PREINCUBATION
[3] = Test System: AMES SALMONELLA TYPHIMURIUM, Strain/Indicator: TA100, Metabolic Activation: NONE, Method: STANDARD PLATE

Q: For `c1ccc2[nH]ccc2c1`, which mutagenic call [1] is on record?
A: The mutagenic call was “inactive; negative”.

Q: And the mutagenic call (Test System: AMES SALMONELLA TYPHIMURIUM, Strain/Indicator: TA97, Metabolic Activation: RAT, LIVER, S-9, AROCLOR 1254, Method: PREINCUBATION)?
A: The mutagenic call was “inactive; negative”.

Q: And the mutagenic call [2]?
A: The mutagenic call was “inactive; negative”.

Q: What about the mutagenic call (Test System: AMES SALMONELLA TYPHIMURIUM, Strain/Indicator: TA102, Metabolic Activation: NONE, Method: PREINCUBATION) of the same compound?
A: The mutagenic call was “inactive; negative”.

Q: And the mutagenic call (Test System: AMES SALMONELLA TYPHIMURIUM, Strain/Indicator: TA102, Metabolic Activation: RAT, LIVER, S-9, AROCLOR 1254, Method: PREINCUBATION)?
A: The mutagenic call was “inactive; negative”.

Q: Which results are given for `O=C1c2ccccc2C(=O)C1(O)O`?
A: mutagenic call (Test System: AMES SALMONELLA TYPHIMURIUM, Strain/Indicator: TA97, Metabolic Activation: HAMSTER, LIVER, S-9, AROCLOR 1254 (10%), Method: PREINCUBATION): inactive; negative; mutagenic call (Test System: AMES SALMONELLA TYPHIMURIUM, Strain/Indicator: TA97, Metabolic Activation: HAMSTER, LIVER, S-9, AROCLOR 1254 (30%), Method: PREINCUBATION): inactive; negative; mutagenic call [1]: inactive; negative; mutagenic call (Test System: AMES SALMONELLA TYPHIMURIUM, Strain/Indicator: TA97, Metabolic Activation: RAT, LIVER, S-9, AROCLOR 1254 (10%), Method: PREINCUBATION): inactive; negative; mutagenic call (Test System: AMES SALMONELLA TYPHIMURIUM, Strain/Indicator: TA97, Metabolic Activation: RAT, LIVER, S-9, AROCLOR 1254 (30%), Method: PREINCUBATION): inactive; negative; mutagenic call (Test System: AMES SALMONELLA TYPHIMURIUM, Strain/Indicator: TA98, Metabolic Activation: HAMSTER, LIVER, S-9, AROCLOR 1254 (10%), Method: PREINCUBATION): inactive; negative; mutagenic call (Test System: AMES SALMONELLA TYPHIMURIUM, Strain/Indicator: TA98, Metabolic Activation: HAMSTER, LIVER, S-9, AROCLOR 1254 (30%), Method: PREINCUBATION): inactive; negative; mutagenic call (Test System: AMES SALMONELLA TYPHIMURIUM, Strain/Indicator: TA98, Metabolic Activation: NONE, Method: PREINCUBATION): inactive; negative; mutagenic call (Test System: AMES SALMONELLA TYPHIMURIUM, Strain/Indicator: TA98, Metabolic Activation: RAT, LIVER, S-9, AROCLOR 1254 (10%), Method: PREINCUBATION): inactive; negative; mutagenic call (Test System: AMES SALMONELLA TYPHIMURIUM, Strain/Indicator: TA98, Metabolic Activation: RAT, LIVER, S-9, AROCLOR 1254 (30%), Method: PREINCUBATION): inactive; negative; mutagenic call (Test System: AMES SALMONELLA TYPHIMURIUM, Strain/Indicator: TA100, Metabolic Activation: HAMSTER, LIVER, S-9, AROCLOR 1254 (10%), Method: PREINCUBATION): inactive; negative; mutagenic call (Test System: AMES SALMONELLA TYPHIMURIUM, Strain/Indicator: TA100, Metabolic Activation: HAMSTER, LIVER, S-9, AROCLOR 1254 (30%), Method: PREINCUBATION): inactive; negative; mutagenic call [2]: inactive; negative; mutagenic call (Test System: AMES SALMONELLA TYPHIMURIUM, Strain/Indicator: TA100, Metabolic Activation: RAT, LIVER, S-9, AROCLOR 1254 (5%), Method: PREINCUBATION): inactive; negative; mutagenic call (Test System: AMES SALMONELLA TYPHIMURIUM, Strain/Indicator: TA100, Metabolic Activation: RAT, LIVER, S-9, AROCLOR 1254 (10%), Method: PREINCUBATION): inactive; negative; mutagenic call (Test System: AMES SALMONELLA TYPHIMURIUM, Strain/Indicator: TA100, Metabolic Activation: RAT, LIVER, S-9, AROCLOR 1254 (30%), Method: PREINCUBATION): inactive; negative; mutagenic call (Test System: AMES SALMONELLA TYPHIMURIUM, Strain/Indicator: TA1535, Metabolic Activation: HAMSTER, LIVER, S-9, AROCLOR 1254 (10%), Method: PREINCUBATION): inactive; negative; mutagenic call (Test System: AMES SALMONELLA TYPHIMURIUM, Strain/Indicator: TA1535, Metabolic Activation: HAMSTER, LIVER, S-9, AROCLOR 1254 (30%), Method: PREINCUBATION): inactive; negative; mutagenic call (Test System: AMES SALMONELLA TYPHIMURIUM, Strain/Indicator: TA1535, Metabolic Activation: NONE, Method: PREINCUBATION): inactive; negative; mutagenic call (Test System: AMES SALMONELLA TYPHIMURIUM, Strain/Indicator: TA1535, Metabolic Activation: RAT, LIVER, S-9, AROCLOR 1254 (10%), Method: PREINCUBATION): inactive; negative; mutagenic call (Test System: AMES SALMONELLA TYPHIMURIUM, Strain/Indicator: TA1535, Metabolic Activation: RAT, LIVER, S-9, AROCLOR 1254 (30%), Method: PREINCUBATION): inactive; negative; mutagenic call (Test System: AMES SALMONELLA TYPHIMURIUM, Strain/Indicator: TA1537, Metabolic Activation: HAMSTER, LIVER, S-9, AROCLOR 1254 (10%), Method: PREINCUBATION): inactive; negative; mutagenic call (Test System: AMES SALMONELLA TYPHIMURIUM, Strain/Indicator: TA1537, Metabolic Activation: HAMSTER, LIVER, S-9, AROCLOR 1254 (30%), Method: PREINCUBATION): inactive; negative; mutagenic call (Test System: AMES SALMONELLA TYPHIMURIUM, Strain/Indicator: TA1537, Metabolic Activation: RAT, LIVER, S-9, AROCLOR 1254 (10%), Method: PREINCUBATION): inactive; negative; mutagenic call (Test System: AMES SALMONELLA TYPHIMURIUM, Strain/Indicator: TA1537, Metabolic Activation: RAT, LIVER, S-9, AROCLOR 1254 (30%), Method: PREINCUBATION): inactive; negative

Q: How did the mutagenic call [3] turn out when `O=[N+]([O-])c1ccc(OC[C@H]2CO2)cc1` was run?
A: The mutagenic call was “active; positive”.

Q: How did the mutagenic call (Test System: AMES SALMONELLA TYPHIMURIUM, Strain/Indicator: TA98, Metabolic Activation: NONE, Method: STANDARD PLATE) turn out when `O=c1[nH]c2ccccc2n1C1CCN(CCCC(c2ccc(F)cc2)c2ccc(F)cc2)CC1` was run?
A: The mutagenic call was “inactive; negative”.

Q: What about the mutagenic call (Test System: AMES SALMONELLA TYPHIMURIUM, Strain/Indicator: TA98, Metabolic Activation: RAT, LIVER, S-9, AROCLOR 1254, Method: STANDARD PLATE) of the same compound?
A: Its mutagenic call is “inactive; negative”.

Q: And the mutagenic call [3]?
A: The mutagenic call was “inactive; negative”.

Q: What about the mutagenic call (Test System: AMES SALMONELLA TYPHIMURIUM, Strain/Indicator: TA100, Metabolic Activation: RAT, LIVER, S-9, AROCLOR 1254, Method: STANDARD PLATE) of the same compound?
A: Its mutagenic call is “inactive; negative”.

Q: And the mutagenic call (Test System: AMES SALMONELLA TYPHIMURIUM, Strain/Indicator: TA1535, Metabolic Activation: NONE, Method: STANDARD PLATE)?
A: Its mutagenic call is “inactive; negative”.

Q: And the mutagenic call (Test System: AMES SALMONELLA TYPHIMURIUM, Strain/Indicator: TA1535, Metabolic Activation: RAT, LIVER, S-9, AROCLOR 1254, Method: STANDARD PLATE)?
A: Its mutagenic call is “inactive; negative”.

Q: What about the mutagenic call (Test System: AMES SALMONELLA TYPHIMURIUM, Strain/Indicator: TA1537, Metabolic Activation: NONE, Method: STANDARD PLATE) of the same compound?
A: Its mutagenic call is “inactive; negative”.

Q: And the mutagenic call (Test System: AMES SALMONELLA TYPHIMURIUM, Strain/Indicator: TA1537, Metabolic Activation: RAT, LIVER, S-9, AROCLOR 1254, Method: STANDARD PLATE)?
A: Its mutagenic call is “inactive; negative”.

Q: Which mutagenic call [3] does the source give for `c1ccc2c(c1)C1=c3c-2cc2cccc4ccc(c3c42)C2OC12` (stereo not drawn) here?
A: The mutagenic call was “active; positive”.

Q: For `CC(C)Oc1ccccc1OC(=O)N(C)N=O`, which mutagenic call (End Point: In vitro chromosomal aberrations, Test System: Chinese hamster ovary (CHO-W8) cells, Metabolic Activation: None) is on record?
A: The mutagenic call was “active; positive (structural changes)”.

Q: And the mutagenic call (Test System: CHINESE HAMSTER V-79, Strain/Indicator: V-79 (HPRT)/6-THIOGUANINE, Metabolic Activation: NONE)?
A: Its mutagenic call is “active; positive”.

Q: What about the mutagenic call (Test System: E. COLI WP2, Strain/Indicator: WP2, Metabolic Activation: NONE, Method: STANDARD PLATE) of the same compound?
A: The mutagenic call was “active; positive”.
